Read-outs that look alike come from different tables or passages of the source.

Data set [1] concerns non-transduced hESC colonies. Kind of data set: Morphology and size of hESC colonies upon nucleoside treatment. Type of data set: cell-based, human. An excerpt: We next investigated the impact of ACV, PCV, and GCV on non-transduced hESC and neuroprogenitors (proliferating ReNcells). […] To further understand the impact of nucleoside analogs on non-transduced cells, we performed γ-H2A.X immunostaining (Figure 6B). There was a graded response, virtually identical in hESC and in neuroprogenitors. […] In addition, we investigated the morphology and size of non-transduced hESC colonies upon nucleoside treatment. […] Taken together, our findings confirm considerable toxicity of GCV, even in the absence of viral TK. Note that this was not the case for PCV despite the fact that it is a potent inducer of cell death in thymidine kinase-expressing cells.
Cells were exposed to 100 µM of the respective nucleoside for 48 h. DNA damage was monitored using γ-H2A.X marker in yellow and nuclei were counterstained with Hoechst. The white box in the first column indicates the area of the zoom for the hESC colonies.

In data set [2] the test system is Ubi-SR39h post-mitotic neurons differentiated from ReNcells. The format is cell-based, human. As for the experimental part:
Figure 4 EC50 and kinetics of GCV-induced cell death in proliferating and post-mitotic ReNcells. SR39h was expressed in ReNcells (immortalized neural precursor cells that can be differentiated to post-mitotic neurons) under the control of the two different promoters: Ki67 or ubiquitin. Wild type ReNcells were used as control. […] (B–D) Kinetics of cell death of SR39-expressing ReNcells cells either under the control of cycle promoter Ki67 or ubiquitin promoter with increasing GCV concentrations of 1, 10, and 100 µM. Cell viability was measured every 24 h using a bioluminescent ATP-based assay (n = 3). (E) ReNcells were differentiated toward post-mitotic neurons for 21 days then treated with GCV for 10 days. Cell viability was measured using an ATP-based assay. Results are mean + SD of three independent experiments performed in triplicates. […]
Cell culture plate (96 wells plate Corning #3907, Corning, Lonay, Switzerland) were pre-coated with 60 μL per well of Poly-L-ornithine solution (Sigma, Merk, Eysins, Switzerland) at 37 °C for 30 min. […] For EC50 assays, the medium was changed daily for 4 days, then cell viability was assessed using an ATP-based assay. EC50 values for each construct were calculated using a four parameters equation (GraphPad, Prism8, San Diego, CA, USA). […] Luminescence was measured using Spectra L384/L96 (0.2 sec exposure, Molecular devices, Biberach an der Riß, Germany). […]

For data set [3], the system named is ReNcells Ubi-SR39h (proliferating). Kind of data set: ATP-based assay, EC50 in proliferating neural progenitors. The format is cell-based. Particulars: Homo sapiens, 96 h GCV exposure. As for the experimental part: We then compared the ability of GCV to kill proliferating NPC that expressed the SR39h thymidine kinase under the control of the ubiquitin (ReNcells Ubi-SR39h) or the Ki67 promoter. (ReNcells Ki67-SR39h) (Figure 4). For this purpose, we first performed a dose response to GCV on undifferentiated NPC. […] We then explored the kinetic of cell death with the suicide enzyme driven either by Ki67 or ubiquitin promoter for different concentrations of GCV. The rapidity of cell death induction but not its final extent was a function of the GCV concentrations. […] This was true for a short-term treatment at 24 h and 48 h, but not at the later time points at 72 h and 96 h (Figure 4D).
Figure 4 EC50 and kinetics of GCV-induced cell death in proliferating and post-mitotic ReNcells. […] Cell viability was measured every 24 h using a bioluminescent ATP-based assay (n = 3). […] Cell viability was measured using an ATP-based assay. […]
Cell culture plate (96 wells plate Corning #3907, Corning, Lonay, Switzerland) were pre-coated with 60 μL per well of Poly-L-ornithine solution (Sigma, Merk, Eysins, Switzerland) at 37 °C for 30 min. […] For EC50 assays, the medium was changed daily for 4 days, then cell viability was assessed using an ATP-based assay. EC50 values for each construct were calculated using a four parameters equation (GraphPad, Prism8, San Diego, CA, USA). […]

The term EC50 denotes the concentration giving half of the maximal effect. Regarding `Nc1nc(O)c2ncn(COC(CO)CO)c2n1` [GCV, ganciclovir], in data set [1], the “Effect on morphology and size of colonies” value is on record as “smaller colonies”. In addition, the “Cell death in post-mitotic neurons (in words)” value in data set [2] was “killed”. In addition, the “GCV concentration from which cell death induction was detected” value in data set [2] (human, 10 days) is not below 10 µM. In addition, the EC50 in data set [3] (24-point dose response, n = 3, read-out: EC50 of GCV, ReNcell Ki67-SR39h (second line of the picture's table)) was 2.1 nM; in data set [3] (undifferentiated NPC, read-out: EC50 of GCV), approximately 2.1 nM.

These data come from article PMC8834506, “Optimization of Thymidine Kinase-Based Safety Switch for Neural Cell Therapy” (Cells, 2022).
